Laboratory results reported in ChEMBL document CHEMBL4888484, “Replenishing the malaria drug discovery pipeline: Screening and hit evaluation of the MMV Hit Generation Library 1 (HGL1) against asexual blood stage Plasmodium falciparum ,using a nano luciferase reporter read-out” (2022).

Columns and labels:
[1] = Hit confirmation in dose-response curve in HepG2 cytotoxicity assay, at 72h; format: toxicity, cell-based; set-up: timepoint 72 hour; details: human, HepG2 cells
Plasmodium falciparum [2] = assay: Hit confirmation in dose-response curve in NF54 pLDH assay, at 72h; format: functional, organism-based; set-up: timepoint 72 hour; details: NF54, Erythrocyte
Plasmodium falciparum [3] = assay: Hit confirmation in dose-response curve in NF54 nanoGlo assay, at 12h; format: functional, organism-based, Erythrocyte; set-up: timepoint 12 hour; details: Plasmodium falciparum, NF54, Erythrocyte, 12 h
Plasmodium falciparum [4] = assay: Hit confirmation in dose-response curve in Dd2 pLDH assay, at 72h; format: functional, organism-based; set-up: timepoint 72 hour; details: Dd2, Erythrocyte
Plasmodium falciparum [5] = assay: Hit confirmation in dose-response curve in NF54 nanoGlo assay, at 72h; format: functional, organism-based, Erythrocyte; set-up: timepoint 72 hour; details: Plasmodium falciparum, NF54, Erythrocyte, 72 h

Row | Structure (SMILES) | IC50 at 72 h [1] | IC50 (Plasmodium falciparum [2]) | IC50 (Plasmodium falciparum [3]) | IC50 (Plasmodium falciparum [4]) | IC50 (Plasmodium falciparum [5])
1 | CCCOc1ccc(Nc2cc(C)nc3ccc(Cl)cc23)cc1 | > 10 µM | 7.08 µM | > 10 µM | 3.24 µM | 2.88 µM
2 | CC1CCN(c2nccnc2Oc2ccc(C(=O)NCc3ccccc3Cl)cc2)CC1 | > 10 µM | 9.55 µM | > 10 µM | 6.61 µM | 2.45 µM
3 | COc1ccc([C@H](NC(=O)CCc2ccccc2)c2c(O)ccc3ccccc23)cc1 | > 10 µM | 9.33 µM | 1.48 µM | 5.62 µM | 2.45 µM
4 | O=C(c1cccc(C(=O)N2CCN(C(c3ccccc3)c3ccccc3)CC2)c1)N1CCN(C(c2ccccc2)c2ccccc2)CC1 | > 10 µM | > 10 µM | > 10 µM | > 10 µM | > 10 µM
5 | O=C(Nc1[nH]c(=O)ncc1F)c1cccc2ccccc12 | > 10 µM | 0.0105 µM | 1.95 µM | > 10 µM | 0.00617 µM
6 | Cc1cc(=O)[nH]c(-n2nc(C3CC3)cc2NC(=O)C(c2ccccc2)c2ccccc2)n1 | 7.59 µM | 2.14 µM | 8.32 µM | 3.09 µM | 0.955 µM
7 | Cc1ccc(S(=O)(=O)Nc2c(S(=O)(=O)c3ccc(C)cc3)c3nc4ccccc4nc3n2C[C@H]2CCCO2)cc1 | > 10 µM | > 10 µM | 1.35 µM | > 10 µM | 2.57 µM
8 | COc1ccccc1CN1COc2cc3c(cc2C1)OCO3 | > 10 µM | 2.09 µM | 1.91 µM | 2.29 µM | 1.58 µM
9 | Cc1ccc(N(Cc2cccs2)C(=O)c2cccs2)cc1Cl | > 10 µM | 9.33 µM | 5.75 µM | 4.68 µM | 3.39 µM
10 | CCN(CC)CC(O)COc1c(Br)cc(C(C)(C)c2cc(Br)c(OCC(O)CN(CC)CC)c(Br)c2)cc1Br (stereo not given) | 5.75 µM | 1.29 µM | 1.2 µM | 1.12 µM | 0.603 µM
11 | CNC(=O)[C@@H]1C[C@H](NCc2cc(OC)c(OC)c(OC)c2)CN1CC(c1ccccc1)c1ccccc1 | > 10 µM | 3.63 µM | 3.63 µM | 2.82 µM | 2.14 µM
12 | COc1ccc(-c2c(C(F)(F)F)n[nH]c2-c2ccc(OCc3ccccc3F)cc2O)cc1 | > 10 µM | 6.31 µM | 2.88 µM | 3.02 µM | 1.66 µM
13 | O=C(Cc1ccc(N(Cc2cccc(F)c2)C(=O)C2CCCC2)cc1)NCCN1CCCCC1 | > 10 µM | 0.617 µM | > 10 µM | 0.724 µM | 0.501 µM
14 | O=c1c2ccccc2nc2cc(-c3ccc(O)cc3)c(-c3ccccc3)nn12 | > 10 µM | > 10 µM | 3.63 µM | > 10 µM | 2.14 µM
15 | CC[n+]1c(/C=C/N(C)c2ccccc2)oc2ccccc21 | > 10 µM | 0.741 µM | > 10 µM | 0.661 µM | 0.724 µM
16 | NCc1cccc(C(=O)N2CCc3cc4ccc3[C@@H]2c2cccc(c2)OCCCNC(=O)c2cc(ccc2O)O4)c1 | > 10 µM | 6.92 µM | 3.72 µM | 3.72 µM | 1.51 µM
17 | Cc1ccc(N2C(=O)c3ccccc3[C@@H]2c2c[nH]c3ccccc23)cc1 | > 10 µM | 7.41 µM | 5.5 µM | 6.92 µM | 2.63 µM
18 | COc1ccccc1C1c2[nH]c3ccccc3c2C[C@H]2C(=O)N(CC(O)c3ccccc3)CC(=O)N12 (stereo not given in full) | > 10 µM | 8.91 µM | 4.47 µM | > 10 µM | 3.16 µM
19 | Oc1ccc2cc(CN3CCC[C@H](CN4CCCC4)C3)ccc2c1 | > 10 µM | 1.74 µM | 2.45 µM | 2.63 µM | 1.2 µM

Row | Structure (SMILES) | IC50 at 72 h [1] | IC50 (Plasmodium falciparum [2]) | IC50 (Plasmodium falciparum [3]) | IC50 (Plasmodium falciparum [4]) | IC50 (Plasmodium falciparum [5])
20 | O=C(CCCc1ccccc1)Nc1cc(C2CC2)nn1-c1nc(-c2ccccc2)cc(=O)[nH]1 | > 10 µM | 6.03 µM | > 10 µM | 3.63 µM | 3.72 µM
21 | COc1ccc2c(c1)OC13CCN(C)CC1C2C(C(=O)c1ccccc1OC)C(=O)N3 (stereo not given) | > 10 µM | > 10 µM | 1.05 µM | > 10 µM | 2 µM
22 | COc1ccc(C(=O)CN2C=CCC=C2c2nc(-c3ccc(Cl)cc3)cs2)cc1 | > 10 µM | 5.13 µM | > 10 µM | 3.02 µM | 2.14 µM
23 | COc1ccc(CCc2nc(NC(=O)c3nc(C)sc3C)n[nH]2)cc1OC | > 10 µM | > 10 µM | 0.676 µM | > 10 µM | 1.45 µM
24 | CCOC(=O)C1CCC(CN(Cc2ccc(OC)cc2)S(=O)(=O)c2cc(C(=O)Nc3ccc(OCC)cc3)ccc2F)CC1 (stereo not given) | > 10 µM | > 10 µM | 7.94 µM | > 10 µM | 5.01 µM
25 | Cc1cc(N2CCC3(CCCN3Cc3cc(C#N)n(C)c3C)CC2)c2ccccc2n1 | > 10 µM | 3.39 µM | > 10 µM | 1.86 µM | 1.95 µM
26 | Nc1nc2c(s1)CN(CCc1ccccc1)CC2 | > 10 µM | 6.92 µM | > 10 µM | 5.62 µM | 3.98 µM
27 | O=S(=O)(Nc1cccc2cccnc12)c1cccs1 | 10.7 µM | 5.62 µM | 4.57 µM | 3.24 µM | 1.82 µM
28 | Fc1ccccc1N1CCN(C2CCN(Cc3c[nH]c4ccccc34)CC2)CC1 | > 10 µM | 4.07 µM | > 10 µM | 3.24 µM | 1.82 µM
29 | Cc1cc(=O)[nH]c(-n2nc(C3CC3)cc2NC(=O)c2ccc(C(C)(C)C)cc2)n1 | > 10 µM | > 10 µM | > 10 µM | > 10 µM | 1.86 µM
30 | COc1ccc2c(c1)[n+](CC(=O)c1ccc(-c3ccc(Br)cc3)cc1)c(CO)n2C | > 10 µM | 5.62 µM | > 10 µM | 5.37 µM | 1.91 µM
31 | O=C(N[C@H]1CC[C@@H]2CCC[C@@H]21)c1c[nH]c(=O)c(Cl)c1 | > 10 µM | 3.98 µM | 2.45 µM | 5.13 µM | 2.19 µM
32 | CN1CCN([C@H]2CCN(c3ccnc4ccc(Cl)cc34)C[C@H]2CCCO)CC1 | > 10 µM | 2.14 µM | 2.95 µM | 1.48 µM | 1.74 µM
33 | CCC1=Nc2ccccc2N=C(NC(=O)C(C)C)[C@H]1c1ccc(F)cc1 | > 10 µM | 7.24 µM | 3.8 µM | 8.32 µM | 2.45 µM
34 | Oc1cc(OCc2ccccc2F)ccc1-c1[nH]ncc1-c1ccccc1 | > 10 µM | 4.07 µM | 3.89 µM | 3.09 µM | 2.19 µM
35 | COc1ccc2c(/C=C/c3cc[n+](C)cc3)cn(Cc3ccccc3)c2c1 | > 10 µM | 1.58 µM | > 10 µM | 1.26 µM | 1.17 µM
36 | CC[C@H](O)CN1CCC(Nc2ncnc3cc(Cl)ccc23)CC1 | > 10 µM | 1.82 µM | 2.95 µM | 1.51 µM | 1.62 µM
37 | CC(C)(C)n1nc2nc(NCCN3CCCCC3)nc(-c3ccc(F)c(Cl)c3)c2c1N | > 10 µM | 2.88 µM | 6.03 µM | 2.82 µM | 1.62 µM
